# Measurements taken from patent publication US20040116293A1, “Enhanced herbicide composition” (priority 2002, published 2004).
# Key:
# [1] = system: velvetleaf; assay: Herbicidal activity (phytotoxicity, percent leaf area affected) of foliar sprays on velvetleaf; assay type: in vivo, Abutilon theophrasti (velvetleaf); conditions: for Phytotoxicity at 3 days: percent leaf area affected / Phytotoxicity at 5 days: percent leaf area affected / Phytotoxicity at 7 days: percent leaf area affected: alone or + NaSA 800 ppm
# Description: (§1) In all examples, deionized ultra-pure water was used in preparing solutions. Spray solutions were used as soon as possible after mixing.
# (§2) In all herbicide applications, plants were sprayed with a sufficient volume to insure good coverage, to the point of runoff of the spray solution. […] For all treatments containing both an herbicide and a salicylate or SAR inducer, these materials were mixed and applied in a single spray solution (commonly known as a tank mix). After spraying, plants were moved to the greenhouse and arranged in randomized complete blocks. Plants were evaluated for herbicidal effects (phytotoxicity) after spraying by assessing damage according to percent leaf area affected. All the data were subject to an analysis of variance, and the mean separations were determined with Duncan's multiple range test at α=0.05.
# [2] = system: Xanthi-nc tobacco; assay: Herbicidal activity (phytotoxicity, percent leaf area affected) of foliar sprays on Xanthi-nc tobacco; assay type: in vivo, Nicotiana tabacum (tobacco)
# Description: as §1, §2
# [3] = system: Xanthi-nc tobacco; assay: Herbicidal activity on Xanthi-nc tobacco at three different light levels; assay type: in vivo, Nicotiana tabacum (tobacco); conditions: for Phytotoxicity at 5 days: percent leaf area affected / Phytotoxicity at 9 days: percent leaf area affected / Phytotoxicity at 13 days: percent leaf area affected: atrazine (Aatrex Nine-O) 250 ppm, NaSA 800 ppm
# Description: as §1, §2
# [4] = system: corn variety Silver Queen; assay: Foliar sprays on corn variety Silver Queen (crop damage)
# Description: as §1, §2
# Atrazine is commonly used against weeds in corn and small grain crops.
# [5] = system: Xanthi-nc tobacco; assay: Herbicidal activity on Xanthi-nc tobacco at three different temperatures; assay type: in vivo, Nicotiana tabacum (tobacco); conditions: for Phytotoxicity at 3 days: percent leaf area affected / Phytotoxicity at 5 days: percent leaf area affected / Phytotoxicity at 7 days: percent leaf area affected / Phytotoxicity at 10 days: percent leaf area affected: atrazine (Aatrex Nine-O) 250 ppm, NaSA 800 ppm
# Description: as §1, §2
# [6] = atrazine (Aatrex Nine-O) 50 ppm
# [7] = atrazine (Aatrex Nine-O) 100 ppm
# [8] = atrazine (Aatrex Nine-O) 250 ppm
# [9] = atrazine 100 ppm, alone or + NaSA 1600 ppm
# [10] = atrazine 250 ppm, alone or + NaSA 1600 ppm
# [11] = atrazine 500 ppm, alone or + NaSA 1600 ppm
# [12] = illumination 9.8 μmoles·m^−2·s^−1
# [13] = illumination 31.3 μmoles·m^−2·s^−1
structure (smiles),measurement,setting,value
"CCNc1nc(Cl)nc(NC(C)C)n1 [Atrazine, 6-chloro-N-ethyl-N′(1-methylethyl)-1,3,5-triazine-2,4-diamine]",Phytotoxicity at 3 days: percent leaf area affected,[1]; [6],17.5 B percent
same,Phytotoxicity at 5 days: percent leaf area affected,[1]; [6],20 B percent
same,Phytotoxicity at 7 days: percent leaf area affected,[1]; [6],25 B percent
same,Phytotoxicity at 3 days: percent leaf area affected,[1]; [7],35 C percent
same,Phytotoxicity at 5 days: percent leaf area affected,[1]; [7],50 D percent
same,Phytotoxicity at 7 days: percent leaf area affected,[1]; [7],45 C percent
same,Phytotoxicity at 3 days: percent leaf area affected,[1]; [8],80 E percent
same,Phytotoxicity at 5 days: percent leaf area affected,[1]; [8],97.5 EF percent
same,Phytotoxicity at 7 days: percent leaf area affected,[1]; [8],95 D percent
same,Phytotoxicity at 2 days: percent leaf area affected,"[2]; 2 days, atrazine (Aatrex Nine-O) 100 ppm, NaSA 800 ppm, acibenzolar-S-methyl 187 ppm, alone or tank-mixed as labelled",1 A percent
same,Phytotoxicity at 3 days: percent leaf area affected,"[2]; atrazine (Aatrex Nine-O) 100 ppm, NaSA 800 ppm, acibenzolar-S-methyl 187 ppm, alone or tank-mixed as labelled",17 B percent
same,Phytotoxicity at 7 days: percent leaf area affected,"[2]; 7 days, atrazine (Aatrex Nine-O) 100 ppm, NaSA 800 ppm, acibenzolar-S-methyl 187 ppm, alone or tank-mixed as labelled",93.9 B percent
same,Phytotoxicity at 3 days: percent leaf area affected,[2]; [9],1.5 A percent
same,Phytotoxicity at 6 days: percent leaf area affected,[2]; [9],66.2 C percent
same,Phytotoxicity at 3 days: percent leaf area affected,[2]; [10],4.3 AB percent
same,Phytotoxicity at 6 days: percent leaf area affected,[2]; [10],77.5 D percent
same,Phytotoxicity at 3 days: percent leaf area affected,[2]; [11],9.5 B percent
same,Phytotoxicity at 6 days: percent leaf area affected,[2]; [11],82.5 DE percent
same,Phytotoxicity at 5 days: percent leaf area affected,[3]; illumination 0 (Dark),0.6 AB percent
same,Phytotoxicity at 5 days: percent leaf area affected,[3]; [12],0 A percent
same,Phytotoxicity at 5 days: percent leaf area affected,[3]; [13],1.9 AB percent
same,Phytotoxicity at 9 days: percent leaf area affected,[3]; illumination 0 (Dark),0.6 A percent
same,Phytotoxicity at 9 days: percent leaf area affected,[3]; [12],5.3 AB percent
same,Phytotoxicity at 9 days: percent leaf area affected,[3]; [13],67.2 B percent
same,Phytotoxicity at 13 days: percent leaf area affected,"[3]; illumination 0 (Dark), crop oil control 35.9",28.1 A percent
same,Phytotoxicity at 13 days: percent leaf area affected,[3]; [12],76.5 B percent
same,Phytotoxicity at 13 days: percent leaf area affected,[3]; [13],100%
same,Percent leaf area affected at 3 days,"[4]; atrazine (Aatrex Nine-O) 100 ppm, alone or + NaSA 800 ppm",0 A Percent
same,Percent leaf area affected at 3 days,"[4]; atrazine (Aatrex Nine-O) 500 ppm, alone or + NaSA 800 ppm",0 A Percent
same,Percent leaf area affected at 3 days,"[4]; atrazine (Aatrex Nine-O) 1000 ppm, alone or + NaSA 800 ppm",0 A Percent
same,Phytotoxicity at 3 days: percent leaf area affected,[5]; 15 C.,0 A percent
same,Phytotoxicity at 3 days: percent leaf area affected,[5]; 25 C.,0 A percent
same,Phytotoxicity at 3 days: percent leaf area affected,[5]; 35 C.,11.0 AB percent
same,Phytotoxicity at 5 days: percent leaf area affected,[5]; 15 C.,0 A percent
same,Phytotoxicity at 5 days: percent leaf area affected,[5]; 25 C.,0.6 A percent
same,Phytotoxicity at 5 days: percent leaf area affected,[5]; 35 C.,73.4 C percent
same,Phytotoxicity at 7 days: percent leaf area affected,[5]; 15 C.,5.9 B percent
same,Phytotoxicity at 7 days: percent leaf area affected,[5]; 25 C.,25 C percent
same,Phytotoxicity at 7 days: percent leaf area affected,[5]; 35 C.,97.8 C percent
same,Phytotoxicity at 10 days: percent leaf area affected,[5]; 15 C.,39.1 B percent
same,Phytotoxicity at 10 days: percent leaf area affected,[5]; 25 C.,84.4 B percent
same,Phytotoxicity at 10 days: percent leaf area affected,[5]; 35 C.,100 C percent
"O=C([O-])c1ccccc1O.[Na+] [NaSA, sodium salicylate]",Effect of salicylate on Aatrex Nine-O herbicidal activity (in words),[1]; velvetleaf,potentiates Aatrex Nine-O®
same,Effect of salicylate on Basagran (bentazon) herbicidal activity (in words),[2]; tobacco,potentiates Basagran®
same,Effect of added salicylate on atrazine herbicidal activity (in words),"[2]; tobacco, apparent 3 days after application, persisted through 6 days",increased atrazine herbicidal activity
same,Effect of added salicylate on atrazine herbicidal activity (in words),[3]; darkness,conferred some activity in darkness
same,Effect of added salicylate on atrazine herbicidal activity (in words),[3]; low light,potentiated atrazine herbicidal activity under low light
same,Percent leaf area affected at 3 days,[4]; NaSA 800 ppm alone,0 A Percent
same,Effect of salicylate on atrazine herbicidal activity (in words),[5]; range of temperatures (15-35 C),potentiated atrazine herbicidal activity under a range of temperatures
